Assay results: US10316056B2, “Chemical compounds and use thereof for improving muscular quality” (BIOPHYTIS, priority 2014, dated 2019)

Key:
in vivo = conditions: male, Wistar, rat, po, 10 mg/kg
Protocol: (§1) The pharmacokinetics of the compounds were evaluated orally using male Wistar rats (Charles River). […] The novel compounds according to the invention were administered at a dose of 10 mg/kg of body weight in the form of a mixture of 4 to 6 products. After administration, the blood was sampled from the tail at t=0.25 h, 0.5 h, 1 h, 3 h, 6 h and 8 h. The blood samples were centrifuged and the plasmas removed.

Myf5 gene transcripts = experiment: Mice subjected to a high-fat diet: Myf5 transcripts; assay type: in vivo, C57BL/6J mice; conditions: 5 mg/kg orally; high-fat diet for 6 weeks
Protocol: The 20E as comparative compound and the compounds according to the invention (Nos. 51 and 93) were administered orally, at a dose of 5 mg/kg of body weight, to 12-week-old C57BL/6J mice subjected to a high-fat diet for 6 weeks. The effect of the compounds on the weight and the amount of proteins of the Soleus muscle and also the transcripts of genes involved in myogenesis were evaluated.
Myogenesis, which is the process for forming muscle tissues, is controlled by several myogenic transcription factors which act as end effectors of the signaling cascade and produce transcripts involved in the various stages of development. The roles of the transcription factors have been described in various journals (Sabourin and Rudnicki 2000 and Le Grand and Rudnicki 2007). The Pax7 protein (Paired-box protein 7) maintains a population of satellite cells in quiescence and, with Myf5 (Myogenic factor 5), plays a role in the expansion of activated myoblasts. The MyoD protein (Myoblast Determination protein) appears to determine the differentiation potential of activated myoblasts, and cooperates with myogenin and the MEF2 (Myocyte Enhancer Factor 2) protein to control and bring about differentiation. Finally, MRF4 (Muscle-specific Regulatory Factor 4) is required for hypertrophy, even though it probably plays other roles. […]
The relative differences in gene expression between treatments are expressed as increase or decrease in the number of cycle times [Ct] compared with the control group, the [Ct] value of each gene having been standardized with the beta-actin gene.
The in vivo study is carried out by evaluating the effect of 20E as comparative compound and of the molecules according to the invention (Nos. 51 and 93) administered orally, at a dose of 5 mg/kg of body weight, to C57BL/6 mice subjected to a high-fat diet for 6 weeks. The effect of the molecules on the weight and the amount of proteins of the Soleus muscle and also the transcripts of genes involved in myogenesis were evaluated.

[1] = rat, in vivo, po; for Cexp (coefficient of exposure): male, Wistar
Protocol: as §1

[2] = test system: myostatin gene expression in C2C12 cells; experiment: Inhibition of myostatin expression in C2C12 cells (qPCR); assay type: cell-based; conditions: Mus musculus, percentage myostatin gene expression in cells in contact with the compounds related to control cells, C2C12, 6 h
Method in brief: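 C2C12 myoblasts differentiated to myotubes for 5 days in 2% serum, then treated 6 h with compounds in serum-free, low-glucose (1 g/l) DMEM; IGF-1 100 ng/ml as reference. Myostatin mRNA quantified by RT-qPCR, expressed relative to untreated control as R=2^-ΔΔCt.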

| Structure (SMILES) | AUC (in vivo) | Cmax (in vivo) | Tmax (in vivo) | transcripts of the Myf5 gene (Myf5 gene transcripts) | Cexp (coefficient of exposure) [1] | plasma exposure compared with 20E [1] | mrna remaining at 10 µM [2] |
| --- | --- | --- | --- | --- | --- | --- | --- |
| CCC(CC)C(=O)N(CCOC)C(C)[C@H]1CC[C@@]2(O)C3=CC(=O)[C@@H]4C[C@@H](O)[C@@H](O)C[C@]4(C)C3CC[C@]12C (stereo partly drawn) [Compound 51, 2-ethyl-N-(2-methoxyethyl)-N-[1-[(2S,3R,5R,10R,13R,14S,17S)-2,3,14-trihydroxy-10,13-dimethyl-6-oxo-2,3,4,5,9,11,12,15,16,17-decahydro-1H-cyclopenta[a]phenanthren-17-yl]ethyl]butanamide] | 273 ng·h/mL | 174 ng/mL | 15 min | increase | 3.6 | better plasma exposure | < 70% |
| CCSCC(=O)[C@H]1CC[C@@]2(O)C3=CC(=O)[C@@H]4C[C@@H](O)[C@@H](O)C[C@]4(C)C3CC[C@]12C (stereo partly drawn) [Compound 93, (2S,3R,5R,10R,13R,14S,17S)-17-(2-ethylsulfanylacetyl)-2,3,14-trihydroxy-10,13-dimethyl-2,3,4,5,9,11,12,15,16,17-decahydro-1H-cyclopenta[a]phenanthren-6-one] | 785 ng·h/mL | 230 ng/mL | 30 min | increase | 10.3 | better plasma exposure | < 70% |
